In brackets after ≈: the same amount, converted by molar mass.
Key:
Type in all cases: functional
[1] = tested on: Bacillus subtilis; assay: Antibacterial activity against Bacillus subtilis ATCC 82 after 20 hrs by broth dilution method; conditions: ATCC 82, 20 h
[2] = tested on: Staphylococcus aureus; assay: Antibacterial activity against Staphylococcus aureus ATCC 29213 after 20 hrs by broth dilution method; conditions: ATCC 29213, 20 h
[3] = tested on: Staphylococcus aureus; assay: Antibacterial activity against methicillin-resistant Staphylococcus aureus clinical isolate after 20 hrs by broth dilution method
[4] = tested on: Escherichia coli; assay: Antibacterial activity against Escherichia coli ATCC 25922 after 20 hrs by broth dilution method; conditions: ATCC 25922, 20 h
[5] = tested on: Pseudomonas aeruginosa; assay: Antibacterial activity against Pseudomonas aeruginosa ATCC 27853 after 20 hrs by broth dilution method; conditions: ATCC 27853, 20 h
[6] = tested on: Escherichia coli; assay: Antibacterial activity against extended spectrum beta lactamase-producing Escherichia coli clinical isolate after 20 hrs by broth dilution method
[7] = tested on: Escherichia coli; assay: Antibacterial activity against drug-resistant Escherichia coli clinical isolate after 20 hrs by broth dilution method

SMILES: CC(C)C[C@@H]1NC(=O)[C@H](CC(=O)O)NC(=O)[C@H](CC(N)=O)NC(=O)[C@@H](Cc2ccccc2)NC(=O)[C@H](Cc2ccccc2)NC(=O)[C@@H]2CCCN2C(=O)[C@@H](Cc2ccc(O)cc2)NC(=O)[C@H](CC(C)C)NC(=O)[C@H](CCCN)NC(=O)[C@H](C(C)C)NC1=O [LATEROCIDIN]
- MIC [1]: 16 µg/mL (≈ 13.1 µM)
- MIC [2]: 32 µg/mL (≈ 26.2 µM)
- MIC [3]: 128 µg/mL (≈ 105 µM)
- MIC [4]: > 256 µg/mL
- MIC [5]: > 256 µg/mL
- MIC [6]: > 256 µg/mL

SMILES: CC(C)C[C@@H]1NC(=O)[C@H](CCCN)NC(=O)[C@H](C(C)C)NC(=O)[C@H](CC(C)C)NC(=O)[C@H](CC(N)=O)NC(=O)[C@H](CC(N)=O)NC(=O)[C@H](Cc2ccccc2)NC(=O)[C@H](Cc2ccc(O)cc2)NC(=O)[C@@H]2CCCN2C(=O)[C@H](Cc2ccccc2)NC1=O
- MIC [1]: 64 µg/mL (≈ 52.4 µM)
- MIC [2]: 64 µg/mL (≈ 52.4 µM)
- MIC [3]: 128 µg/mL (≈ 105 µM)
- MIC [4]: > 256 µg/mL
- MIC [5]: > 256 µg/mL
- MIC [6]: > 256 µg/mL

SMILES: CC(C)C[C@@H]1NC(=O)[C@H](CC(N)=O)NC(=O)[C@H](CC(N)=O)NC(=O)[C@H](Cc2ccccc2)NC(=O)[C@H](Cc2ccc(O)cc2)NC(=O)[C@@H]2CCCN2C(=O)[C@@H](Cc2ccccc2)NC(=O)[C@H](CC(C)C)NC(=O)[C@H](CCCN)NC(=O)[C@H](C(C)C)NC1=O
- MIC [1]: 32 µg/mL (≈ 26.2 µM)
- MIC [2]: 32 µg/mL (≈ 26.2 µM)
- MIC [3]: 16 µg/mL (≈ 13.1 µM)
- MIC [4]: > 256 µg/mL
- MIC [5]: > 256 µg/mL
- MIC [6]: > 256 µg/mL

SMILES: CC(C)C[C@@H]1NC(=O)[C@H](CC(N)=O)NC(=O)[C@H](CC(N)=O)NC(=O)[C@@H](Cc2ccccc2)NC(=O)[C@H](Cc2ccc(O)cc2)NC(=O)[C@@H]2CCCN2C(=O)[C@@H](Cc2ccccc2)NC(=O)[C@H](CC(C)C)NC(=O)[C@H](CCCN)NC(=O)[C@H](C(C)C)NC1=O
- MIC [1]: 0.5 µg/mL (≈ 0.409 µM)
- MIC [2]: 1 µg/mL (≈ 0.818 µM)
- MIC [3]: 1 µg/mL (≈ 0.818 µM)
- MIC [4]: > 256 µg/mL
- MIC [5]: > 256 µg/mL
- MIC [6]: 64 µg/mL (≈ 52.4 µM)
- MIC [7]: 16 µg/mL (≈ 13.1 µM)

SMILES: CC(C)C[C@@H]1NC(=O)[C@H](CC(N)=O)NC(=O)[C@H](CC(N)=O)NC(=O)[C@@H](Cc2ccccc2)NC(=O)[C@H](Cc2ccccc2)NC(=O)[C@@H]2CCCN2C(=O)[C@@H](Cc2ccccc2)NC(=O)[C@H](CC(C)C)NC(=O)[C@H](CCCN)NC(=O)[C@H](C(C)C)NC1=O
- MIC [1]: 2 µg/mL (≈ 1.66 µM)
- MIC [2]: 2 µg/mL (≈ 1.66 µM)
- MIC [3]: 4 µg/mL (≈ 3.32 µM)
- MIC [4]: > 256 µg/mL
- MIC [5]: > 256 µg/mL
- MIC [6]: 128 µg/mL (≈ 106 µM)
- MIC [7]: 128 µg/mL (≈ 106 µM)

SMILES: CC(C)C[C@@H]1NC(=O)[C@H](CCCN)NC(=O)[C@H](C(C)C)NC(=O)[C@H](CC(C)C)NC(=O)[C@H](CC(N)=O)NC(=O)[C@H](CC(N)=O)NC(=O)[C@@H](Cc2ccccc2)NC(=O)[C@H](Cc2ccc(O)cc2)NC(=O)[C@@H]2CCCN2C(=O)[C@H](Cc2ccccc2)NC1=O
- MIC [1]: 32 µg/mL (≈ 26.2 µM)
- MIC [2]: 128 µg/mL (≈ 105 µM)
- MIC [3]: 256 µg/mL (≈ 209 µM)
- MIC [4]: > 256 µg/mL
- MIC [5]: > 256 µg/mL
- MIC [6]: > 256 µg/mL

SMILES: CC(C)C[C@@H]1NC(=O)[C@H](CC(N)=O)NC(=O)[C@H](CC(N)=O)NC(=O)[C@@H](Cc2ccccc2)NC(=O)[C@H](Cc2ccccc2)NC(=O)[C@@H]2CCCN2C(=O)[C@@H](Cc2ccc(O)cc2)NC(=O)[C@H](CC(C)C)NC(=O)[C@H](CCCN)NC(=O)[C@H](C(C)C)NC1=O
- MIC [1]: 1 µg/mL (≈ 0.818 µM)
- MIC [2]: 2 µg/mL (≈ 1.64 µM)
- MIC [3]: 4 µg/mL (≈ 3.27 µM)
- MIC [4]: 64 µg/mL (≈ 52.4 µM)
- MIC [5]: > 256 µg/mL
- MIC [6]: 256 µg/mL (≈ 209 µM)
- MIC [7]: 64 µg/mL (≈ 52.4 µM)

From ChEMBL document CHEMBL1153147, “Solid-phase synthesis and antibiotic activities of cyclodecapeptides on the scaffold of naturally occurring Laterocidin” (2010)
